Patent US20060058286A1, “Methods of treating HIV infection” (priority 2004, published 2006)
One block for each compound: values may come before it.

Assays:
[1] = tested on: HIV-1 NL4-3; experiment: Two-drug combination study with Compound 1 (combination indices); type: cell-based; conditions: for Combination Indices at 50% HIV Inhibition (Confidence Interval) / Combination Indices at 75% HIV Inhibition (Confidence Interval) / Combination Indices at 90% HIV Inhibition (Confidence Interval): 95% CI in parentheses; for Overall Result: overall antiviral effect of the two-drug combination with Compound 1, all ratios and effective levels
Method: (§1) Virus and cell lines. The T-cell line, MT-2 was obtained through the AIDS Research and Reference Reagent Program, NIAID and was contributed by Dr. D. Richman. The cell line was cultured in RPMI 1640 medium supplemented with 10% fetal bovine serum, 2 mM L-glutamine and sub-cultured twice a week. The NL4-3 strain of HIV-1 was obtained from the AIDS Research and Reference Reagent Program. Both virus stocks were amplified and titered in MT-2 cells using a virus infectivity assay.
(§2) Drug Susceptibility and Cytotoxicity Assays. For drug susceptibility assays, MT-2 cells were infected with HIV-1 NL4-3 at an MOI of 0.001, and seeded into 96-well microtiter plates (2.5×10^5 cells/ml) containing serial dilutions of test compounds. […] Each drug ratio consisted of an array of 3-fold serial dilutions, and was performed in quadruplicate. The plates were incubated at 37° C./5% CO2. The MT-2 cells infected with HIV-1 NL4-3 were incubated for 5 days. On day-five post-infection, 20 μl from each well was harvested and quantitated by a reverse transcriptase (RT) assay or an MTS assay. Cytotoxicity assays were performed using uninfected cells, exposed to the same drug combinations, and incubated for five days. Cell viability was determined by an XTT assay. The CC50 values were calculated by using the exponential form of the median effect equation as mentioned below for calculation of EC50.
Analysis of Drug Combination Effects. For determination of CI values, drugs were diluted in a fixed ratio and multiple ratios were analyzed. The drug serial dilutions spanned a range of concentrations near the EC50 value of each compound, so that equivalent antiviral activities could be compared. Concentration-response curves were estimated for each individual drug and every combination using the median-effect equation. The equation was fit using a nonlinear regression routine (Proc Nlin) in PC SAS version 8.01 (SAS Institute Inc., SAS Version 8.01, Cary, N.C.: SAS Institute Inc., 1990).
(§3) In this equation, Fa stands for “fraction affected,” and represents the fraction of the viral load that has been inactivated.
To assess antiviral effects of different drug combination treatments, combination indices (CIs) were calculated according to Chou and Rideout. The combination index was computed as CI=[D]1/[Dm]1+[D]2/[Dm]2
In this equation [Dm]1 and [Dm]2 are the concentrations of drugs that would individually produce a specific level of effect, while [D]1 and [D]2 are the concentrations of drugs in combination that would produce the same level of effect.
Theoretically, additivity is implied if the CI is equal to one, synergy if the CI is less than one, and antagonism if the CI is greater than one. […] At best, we can construct a range that contains the likely values for the CI, given the noise in the data. In this report, these ranges are reported in parentheses next to each point estimate of the CI. […] If the range fell entirely above 1.0, we would infer antagonistic behavior. If the range were to include 1.0, we would infer additivity.

[2] = tested on: HIV-1 NL4-3; experiment: microbe, parasite or virus in culture
Method: as §1, §2, §3
In carrying out the combination experiments below, the EC50 for Compound 1 and each comparator compound was determined during the course of each study, and used in the subsequent data analysis.

[3] = combination with Compound 1, EC50 ratio 1:1 (Compound 1:comparator)
[4] = combination with Compound 1, EC50 ratio 1:2.5 (Compound 1:comparator)
[5] = combination with Compound 1, EC50 ratio 2.5:1 (Compound 1:comparator)
[6] = Human immunodeficiency virus 1, NL43, MT2, 120 h

Structure (SMILES): CC(C)CN(C[C@@H](O)[C@H](Cc1ccccc1)NC(=O)O[C@H]1CCOC1)S(=O)(=O)c1ccc(N)cc1 [Amprenavir, amprenavir]
Combination Indices at 50% HIV Inhibition (Confidence Interval) [1, 3]: 0.37 (0.24, 0.49)
Combination Indices at 75% HIV Inhibition (Confidence Interval) [1, 3]: 0.53 (0.28, 0.78)
Combination Indices at 90% HIV Inhibition (Confidence Interval) [1, 3]: 0.95 (0.24, 1.67)
Combination Indices at 50% HIV Inhibition (Confidence Interval) [1, 4]: 0.37 (0.27, 0.48)
Combination Indices at 75% HIV Inhibition (Confidence Interval) [1, 4]: 0.56 (0.33, 0.78)
Combination Indices at 90% HIV Inhibition (Confidence Interval) [1, 4]: 1.05 (0.38, 1.71)
Combination Indices at 50% HIV Inhibition (Confidence Interval) [1, 5]: 1.17 (0.91, 1.43)
Combination Indices at 75% HIV Inhibition (Confidence Interval) [1, 5]: 0.87 (0.60, 1.13)
Combination Indices at 90% HIV Inhibition (Confidence Interval) [1, 5]: 0.74 (0.38, 1.10)
Overall Result [1]: Additive-
Overall Result ([1]; listed as amprenavir): additive to synergistic
EC50 [2, 6]: 42 nM

Structure (SMILES): C[C@H](Cn1cnc2c(N)ncnc21)OCP(=O)(O)O [Tenofovir, tenofovir]
Combination Indices at 50% HIV Inhibition (Confidence Interval) [1, 3]: 1.30 (1.00, 1.61)
Combination Indices at 75% HIV Inhibition (Confidence Interval) [1, 3]: 1.02 (0.69, 1.35)
Combination Indices at 90% HIV Inhibition (Confidence Interval) [1, 3]: 0.80 (0.39, 1.21)
Combination Indices at 50% HIV Inhibition (Confidence Interval) [1, 4]: 0.93 (0.63, 1.23)
Combination Indices at 75% HIV Inhibition (Confidence Interval) [1, 4]: 0.99 (0.54, 1.43)
Combination Indices at 90% HIV Inhibition (Confidence Interval) [1, 4]: 1.06 (0.31, 1.80)
Combination Indices at 50% HIV Inhibition (Confidence Interval) [1, 5]: 1.03 (0.65, 1.40)
Combination Indices at 75% HIV Inhibition (Confidence Interval) [1, 5]: 0.84 (0.42, 1.27)
Combination Indices at 90% HIV Inhibition (Confidence Interval) [1, 5]: 0.70 (0.14, 1.25)
Overall Result [1]: Additive
EC50 ([2]; MT-2 cells infected with HIV-1 NL4-3, MOI 0.001, 5 days, single drug): 3 nM

Structure (SMILES): CC(C)(C)NC(=O)[C@@H]1C[C@@H]2CCCC[C@@H]2CN1C[C@@H](O)[C@H](Cc1ccccc1)NC(=O)[C@H](CC(N)=O)NC(=O)c1ccc2ccccc2n1 [Saquinavir, saquinavir]
Combination Indices at 50% HIV Inhibition (Confidence Interval) [1, 3]: 0.65 (0.49, 0.80)
Combination Indices at 75% HIV Inhibition (Confidence Interval) [1, 3]: 0.85 (0.56, 1.14)
Combination Indices at 90% HIV Inhibition (Confidence Interval) [1, 3]: 1.20 (0.55, 1.84)
Combination Indices at 50% HIV Inhibition (Confidence Interval) [1, 4]: 0.55 (0.42, 0.68)
Combination Indices at 75% HIV Inhibition (Confidence Interval) [1, 4]: 0.97 (0.65, 1.29)
Combination Indices at 90% HIV Inhibition (Confidence Interval) [1, 4]: 1.81 (0.86, 2.77)
Combination Indices at 50% HIV Inhibition (Confidence Interval) [1, 5]: 0.47 (0.38, 0.56)
Combination Indices at 75% HIV Inhibition (Confidence Interval) [1, 5]: 0.60 (0.44, 0.75)
Overall Result [1]: Additive-
Overall Result ([1]; listed as saquinavir): additive to synergistic
EC50 [2, 6]: 11 nM

Structure (SMILES): Nc1nc(NC2CC2)c2ncn([C@H]3C=C[C@@H](CO)C3)c2n1 [Abacavir, abacavir]
combination effect at the 50% effective level ([1]; combination with Compound 1): synergy
combination effect at the 75% and 90% effective levels ([1]; combination with Compound 1): additivity
Combination Indices at 50% HIV Inhibition (Confidence Interval) [1, 3]: 0.66 (0.48, 0.84)
Combination Indices at 75% HIV Inhibition (Confidence Interval) [1, 3]: 0.89 (0.55, 1.91)
Combination Indices at 90% HIV Inhibition (Confidence Interval) [1, 3]: 1.20 (0.48, 1.91)
Combination Indices at 50% HIV Inhibition (Confidence Interval) [1, 4]: 0.58 (0.45, 0.71)
Combination Indices at 75% HIV Inhibition (Confidence Interval) [1, 4]: 0.92 (0.62, 1.21)
Combination Indices at 90% HIV Inhibition (Confidence Interval) [1, 4]: 1.46 (0.72, 2.20)
Combination Indices at 50% HIV Inhibition (Confidence Interval) [1, 5]: 0.65 (0.44, 0.86)
Combination Indices at 75% HIV Inhibition (Confidence Interval) [1, 5]: 0.88 (0.49, 1.28)
Combination Indices at 90% HIV Inhibition (Confidence Interval) [1, 5]: 1.20 (0.36, 2.05)
Overall Result [1]: Additive
EC50 [2, 6]: 740 nM

The next lines start with results.

EC50 [2, 6]: 2 nM
Structure (SMILES): Cc1cn([C@H]2C[C@H](N=[N+]=[N-])[C@@H](CO)O2)c(=O)[nH]c1=O [Zidovudine, zidovudine]
Combination Indices at 50% HIV Inhibition (Confidence Interval) [1, 3]: 0.21 (0.16, 0.26)
Combination Indices at 75% HIV Inhibition (Confidence Interval) [1, 3]: 0.15 (0.10, 0.20)
Combination Indices at 90% HIV Inhibition (Confidence Interval) [1, 3]: 0.12 (0.06, 0.18)
Combination Indices at 50% HIV Inhibition (Confidence Interval) [1, 4]: 0.33 (0.26, 0.40)
Combination Indices at 75% HIV Inhibition (Confidence Interval) [1, 4]: 0.23 (0.16, 0.29)
Combination Indices at 90% HIV Inhibition (Confidence Interval) [1, 4]: 0.16 (0.09, 0.24)
Combination Indices at 50% HIV Inhibition (Confidence Interval) [1, 5]: 0.21 (0.18, 0.24)
Combination Indices at 75% HIV Inhibition (Confidence Interval) [1, 5]: 0.16 (0.12, 0.19)
Combination Indices at 90% HIV Inhibition (Confidence Interval) [1, 5]: 0.13 (0.08, 0.17)
Overall Result [1]: Synergistic
Overall Result ([1]; listed as zidovudine): synergistic

EC50 [2, 6]: 270 nM
Structure (SMILES): O=c1[nH]cnc2c1ncn2[C@H]1CC[C@@H](CO)O1 [Didanosine, didanosine]
Combination Indices at 50% HIV Inhibition (Confidence Interval) [1, 3]: 0.20 (0.14, 0.25)
Combination Indices at 75% HIV Inhibition (Confidence Interval) [1, 3]: 0.27 (0.17, 0.37)
Combination Indices at 90% HIV Inhibition (Confidence Interval) [1, 3]: 0.40 (0.16, 0.64)
Combination Indices at 50% HIV Inhibition (Confidence Interval) [1, 4]: 0.16 (0.12, 0.20)
Combination Indices at 75% HIV Inhibition (Confidence Interval) [1, 4]: 0.21 (0.14, 0.28)
Combination Indices at 90% HIV Inhibition (Confidence Interval) [1, 4]: 0.31 (0.13, 0.49)
Combination Indices at 50% HIV Inhibition (Confidence Interval) [1, 5]: 0.31 (0.27, 0.36)
Combination Indices at 75% HIV Inhibition (Confidence Interval) [1, 5]: 0.32 (0.26, 0.39)
Combination Indices at 90% HIV Inhibition (Confidence Interval) [1, 5]: 0.35 (0.23, 0.47)
Overall Result [1]: Synergistic
Overall Result ([1]; listed as didanosine): synergistic

EC50 [2, 6]: 24 nM
Structure (SMILES): CC(C)c1nc(CN(C)C(=O)N[C@H](C(=O)N[C@@H](Cc2ccccc2)C[C@H](O)[C@H](Cc2ccccc2)NC(=O)OCc2cncs2)C(C)C)cs1 [Ritonavir, ritonavir]
Combination Indices at 50% HIV Inhibition (Confidence Interval) [1, 3]: 1.35 (0.72, 1.97)
Combination Indices at 75% HIV Inhibition (Confidence Interval) [1, 3]: 1.74 (0.61, 2.87)
Combination Indices at 90% HIV Inhibition (Confidence Interval) [1, 3]: 2.56 (0.00, 5.18)
Combination Indices at 50% HIV Inhibition (Confidence Interval) [1, 4]: 1.23 (0.73, 1.74)
Combination Indices at 75% HIV Inhibition (Confidence Interval) [1, 4]: 1.24 (0.53, 1.96)
Combination Indices at 90% HIV Inhibition (Confidence Interval) [1, 4]: 1.39 (0.13, 2.65)
Combination Indices at 50% HIV Inhibition (Confidence Interval) [1, 5]: 1.37 (0.95, 1.80)
Combination Indices at 75% HIV Inhibition (Confidence Interval) [1, 5]: 1.18 (0.67, 1.68)
Combination Indices at 90% HIV Inhibition (Confidence Interval) [1, 5]: 1.13 (0.37, 1.88)
Overall Result [1]: Additive
